Measurements: patent US20030124727A1, “Multivalent cationic lipids and methods of using same in the production of lipid particles” (priority 2001, published 2003)

Experiments:
[1] = 31P NMR polymorphic phase properties of cationic lipid/DPPS mixtures (bilayer-to-non-bilayer transition); assay type: physicochemical; conditions: for temperature at which the mixture adopts the H∥ phase / non-bilayer structure: mixture with DPPS equimolar with respect to charge, hydrated in distilled water; for 31P NMR lineshape (phase structure) at 25° C.: mixture with DPPS
Description: As noted above, the ability of cationic lipids to induce the hexagonal H∥ phase in combination with anionic lipids correlates well with their transfection properties in plasmid DNA-cationic lipid complexes. The relative ability of cationic lipids to induce the H∥ phase can be ascertained by measuring the bilayer-to-non-bilayer transition temperature (Tc) of the cationic lipid in equimolar mixtures (with respect to charge) with an anionic phospholipid such as 1,2-dipalmitoyl-sn-glycero-3-[phospho-L-serine] (DPPS). The bilayer-to-non-bilayer transition can be conveniently monitored employing ^31P NMR techniques (12).
To evaluate the polymorphic phase properties of mixtures of TODMAC3 and TODMAC6 with DPPS, lipid mixtures containing 40-50 mg DPPS and appropriate molar ratios of cationic lipids N,N-dioleyl-N-N-dimethylammonium chloride (DODAC), TODMAC3, and TODMAC6 were prepared by drying from chloroform solution, placed in 10 mm NMR tubes and hydrated with 1.5 mL distilled water. Free induction decays (FIDs) corresponding to 1000 scans were obtained by using a […] 60° pulse with a […] interpulse delay and a spectral width of 25,000 Hz. A gated two-level proton decoupling was used to ensure sufficient decoupling with minimum sample heating. An exponential multiplication corresponding to 50 Hz of line broadening was applied to the FIDs prior to Fourier transformation. The sample temperature (±1° C.) was regulated using a Bruker B-VT1000 variable temperature unit. Chemical shifts were referenced to 85% phosphoric acid as an external standard.

[2] = Preparation of vesicles / bilayer structures on dispersion in aqueous medium; assay type: physicochemical; conditions: for preparation of vesicles from cationic lipid/DOPE mixtures: equimolar mixture with DOPE, hydration of lipid film and extrusion; for formation of bilayer structures on dispersion in an aqueous medium: in the presence and absence of DOPE
Protocol: To prepare large unilamellar vesicles (LUV), mixtures of cationic lipids and DOPE in chloroform were dried under a stream of nitrogen gas and the residual solvent removed under high vacuum for 2 hours. The resulting lipid films were hydrated with distilled water. LUVs were obtained by extruding the lipid dispersions 10 times through two stacked 100-nm pore size polycarbonate filters (Costar Nuclepore polycarbonate membrane, Lipex Biomembranes extruder) (15). Phospholipid concentrations were determined by the inorganic phosphorus assays according to Fiske and Subbarow (16).
(§1) DNA plasmid complexes containing TODMAC3 and TODMAC6 are usually formed by mixing plasmid DNA with preformed vesicles containing the cationic lipid mixed with equimolar amounts of the- “helper” lipid- dioleoyfphosphatidylethanolamine (DOPE) (17, 1-8). […] FIG. 3 illustrates the transfection properties of complexes prepared at cationic lipid-to-DNA charge ratios (positive to negative) ranging from 0.5 to 5.

BHK cells = assay: In vitro transfection of BHK cells with plasmid DNA-cationic lipid complexes (luciferase expression); assay type: cell-based, hamster; conditions: for transfection properties compared among DODAC, TODMAC6 and TODMAC3: complexes formed from ethanol solution, no DOPE, FIG. 4; for transfection potency relative to complexes containing DODAC: cationic lipid/DOPE vesicles, LO18 luciferase plasmid, FIG. 3
Protocol: Lipoplexes were prepared in distilled water at pDNA concentrations ranging from 12.5-25 μg pDNA/ml at positive-to-negative charge ratios between 0.5-5. Plasmid DNA was added under vortexing to cationic LUVs (cationic lipid/DOPE 1:1). In the absence of the helper lipid DOPE, lipoplexes were prepared by addition of the cationic lipids from ethanol solutions to an aqueous solution containing the pDNA. The amount of ethanol in these formulations was between 0.4-2.3%. The lipoplexes were incubated at room temperature for 30 min, diluted to a final concentration of 2.5 μg pDNA/ml with serum-free media (Dulbecco's Modified Eaglels Medium, DMEM) and subsequently applied to BHK cells.
BHK cells, grown in DMEM supplemented with 10% fetal calf serum (FCS), 100 U/ml of penicillin and 100 μg/ml of streptomycin, were seeded in 96-well plates at a density of 1×10^4 cells per well 24 h before transfection. The next day media was removed and replaced with 100 μl of lipoplexes dispersed in serum-free DMEM (0.25 μg pDNA/100 μl), After 4 hr, lipoplexes were replaced with serum-containing DMEM and cells further incubated for 20 h. After that, the culture medium was aspirated, the cells washed twice with 100 μl of PSS and then lysed through addition of 50 μl of lysis buffer (1% Triton X-100 in PBS). Luciferase activity was measured with a Dynex Luminometer (Dynex model ML3000) using the Luciferase Assay Kit from Promega. The total protein concentration per well was determined using the BCA assay from Pierce. Means and standard deviations were calculated from three independent experiments.
as §1
In order to test the relative transfection potencies of DODAC, TODMAC6 and TODMAC3 a different procedure was used to associate the cationic lipid with the plasmid to form the complexes. In this method the cationic lipid dissolved in ethanol was introduced into an aqueous solution of the plasmid and DOPE was not present. […] Specifically, for charge ratios −2.5, TODMAC6 complexes gave rise to luciferase expression levels 5-20 fold higher than could be achieved with DODAC or TODMAC3.

SMILES | temperature at which an H∥ component is visible (limited subset of the DPPS; bulk remains bilayer) ([1]; TODMAC3/DPPS 0.5:1 mol:mol (equimolar in charge), 31P NMR) | temperature of apparently complete H∥ organization ([1]; TODMAC3/DPPS ratio 2:1 on a charge basis) | phase properties of equimolar mixture with DPPS ([1]; equimolar (mol) proportions of TODMAC3 and DPPS, compared with 0.5:1) | preparation of vesicles from cationic lipid/DOPE mixtures [2] | formation of bilayer structures on dispersion in an aqueous medium [2] | temperature at which the mixture adopts the H∥ phase / non-bilayer structure ([1]; 31P NMR) | 31P NMR lineshape (phase structure) at 25° C. [1] | transfection properties compared among DODAC, TODMAC6 and TODMAC3 (BHK cells; charge ratios of two and lower) | transfection potency relative to complexes containing DODAC (BHK cells; charge ratios higher than two (up to 5)) | transfection potency relative to complexes containing DODAC (BHK cells; charge ratios of two or lower) | transfection properties compared among DODAC, TODMAC6 and TODMAC3 (BHK cells; charge ratios above two) | luciferase expression levels higher than could be achieved with DODAC or TODMAC3 (BHK cells; complexes without DOPE, charge ratios −2.5)
CCCCCCCC/C=C\CCCCCCCC[N+](C)(CCCCCCCC/C=C\CCCCCCCC)CCC[N+](C)(CCCCCCCC/C=C\CCCCCCCC)CCCCCCCC/C=C\CCCCCCCC.[Cl-].[Cl-] [TODMAC3, N,N,N1,N1-Tetraoleyl.N,N′-dimethyl-1,3-propanediammonium Chloride] | ≤ 15 °C | ≥ 25 °C | increased preference for H∥ phase structure | could not be prepared | does not | – | – | – | – | – | – | –
CCCCCCCC/C=C\CCCCCCCC[N+](C)(C)CCCCCCCC/C=C\CCCCCCCC.[Cl-] [DODAC, N,N-dioleyl-N-N-dimethylammonium chloride, reference compound] | – | – | – | – | – | > 35 °C | bilayer structure | superior | – | – | – | –
CCCCCCCC/C=C\CCCCCCCC[N+](C)(CCCCCCCC/C=C\CCCCCCCC)CCCCCC[N+](C)(CCCCCCCC/C=C\CCCCCCCC)CCCCCCCC/C=C\CCCCCCCC.[Cl-].[Cl-] [TODMAC6, N,N,N′,N′-Tetraoleyl-N,N′-dimethyl-1,6-hexanediammonium chloride] | – | – | – | could be readily prepared | readily forms bilayer structures | ~30 °C | bilayer structure | – | greater | comparable to or slightly lower | superior to both DODAC and TODMAC3 | 5-20 fold
